Results taken from ChEMBL document CHEMBL1275407, “Treatment of scedosporiosis with voriconazole: clinical experience with 107 patients” (2008).
In brackets after ≈: the same amount, converted by molar mass.

How the values were obtained:
Assay type in all cases: functional
Scedosporium apiospermum [1] = assay: Antifungal activity against Scedosporium apiospermum isolated from voriconazole treated scedosporiosis patient by broth microdilution method
Lomentospora prolificans [2] = assay: Antifungal activity against Scedosporium prolificans isolated from voriconazole treated scedosporiosis patient by broth microdilution method
Scedosporium apiospermum [3] = assay: Antifungal activity against Scedosporium apiospermum isolated from compound treated scedosporiosis patient by broth microdilution method
Lomentospora prolificans [4] = assay: Antifungal activity against Scedosporium prolificans isolated from compound treated scedosporiosis patient by broth microdilution method

| SMILES | MIC50 (Scedosporium apiospermum [1]) [µg/mL] | MIC90 (Scedosporium apiospermum [1]) [µg/mL] | MIC50 (Lomentospora prolificans [2]) [µg/mL] | MIC90 (Lomentospora prolificans [2]) [µg/mL] | MIC50 (Scedosporium apiospermum [3]) [µg/mL] | MIC90 (Scedosporium apiospermum [3]) [µg/mL] | MIC50 (Lomentospora prolificans [4]) [µg/mL] | MIC90 (Lomentospora prolificans [4]) [µg/mL] |
| --- | --- | --- | --- | --- | --- | --- | --- | --- |
| C[C@@H]1[C@H](O)[C@@H](C)/C=C/C=C/C=C/C=C/C=C/C=C/C=C/[C@H](O[C@@H]2O[C@H](C)[C@@H](O)[C@H](N)[C@@H]2O)C[C@@H]2O[C@](O)(C[C@@H](O)C[C@@H](O)[C@H](O)CC[C@@H](O)C[C@@H](O)CC(=O)O[C@H]1C)C[C@H](O)[C@H]2C(=O)O [AMPHOTERICIN B] | 4 (≈ 4.33 µM) | > 8 | 8 (≈ 8.66 µM) | 16 (≈ 17.3 µM) | – | – | – | – |
| C[C@@H](c1ncncc1F)[C@](O)(Cn1cncn1)c1ccc(F)cc1F [VORICONAZOLE] | – | – | – | – | 0.25 (≈ 0.716 µM) | 1 (≈ 2.86 µM) | 4 (≈ 11.5 µM) | 8 (≈ 22.9 µM) |
| CCC(C)n1ncn(-c2ccc(N3CCN(c4ccc(OCC5COC(Cn6cncn6)(c6ccc(Cl)cc6Cl)O5)cc4)CC3)cc2)c1=O (configuration not stated) [ITRACONAZOLE] | 0.5 (≈ 0.709 µM) | 2 (≈ 2.83 µM) | 16 (≈ 22.7 µM) | 16 (≈ 22.7 µM) | – | – | – | – |
